Data: the supplement of paper PMC11208160

Experiment: recombinant barcode read abundance after kanamycin selection (control-corrected) (log10(CPM+1)); higher = more efficient recombination; sequences stand for … in AGTGCAGAGAAAATCGGCCAGTTTTCTCTGCCTGCAGTCCGCATGCCGT…AGATTTATGCAGCGGACTGCCTTTCTCCCAAAGTGATAAACCGGACAGTATCATGGACCGGTTTTCCCGGTAATCCGTATTTGCAAGGTTGGTTTCACT; site = the 11-nt target
Procedure, shortened: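 Oligos holding a promoter, target, barcode and the J23119-driven first 104 bases of the bridge RNA were Gibson-cloned into a vector that supplied the other 73 bp plus a T7-inducible recombinase. This library was co-electroporated with a donor plasmid into E. coli. Two replicates went on chloramphenicol/ampicillin LB agar (control) and two on chloramphenicol/ampicillin/kanamycin with 0.1 mM IPTG. Recombination efficiency is read from averaged, control-corrected barcode counts per million at recombinant junctions, reported as log10(CPM+1).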
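Further: IS621 recombinase and bridge RNA in Escherichia coli cells.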

Sequence: TAACTGTCTTGGGTTCTAACCTGTTGCTT (site CCGTCTACTTG)
- recombinant barcode read abundance (log10): 0.121

Sequence: TAACTGTCTTGGGTTCTAACCTGTTGCTT (site TAACTGTCTAA)
- recombinant barcode read abundance (log10): 1.74

Sequence: TAACTTACTTGGGTTCTAACCTGTTGCCT (site TAACTTACTAG)
- recombinant barcode read abundance (log10): 0.185

Sequence: TAACTTACTTGGGTTCTAACCTGTTGCCT (site TAGCTTACTCG)
- recombinant barcode read abundance (log10): 0.0408

Sequence: TAAGCCTCTTGGGTTCTAACCTGTTGCTG (site TAAGCCTCTCA)
- recombinant barcode read abundance (log10): 2.54

Sequence: TAAGCCTCTTGGGTTCTAACCTGTTGCTG (site TAAGCTACTCA)
- recombinant barcode read abundance (log10): 0

Sequence: TAAGGTCCTTGGGTTCTAACCTGTTGCTA (site GGAGGTCCTTA)
- recombinant barcode read abundance (log10): 0.0326

Sequence: TAAGGTCCTTGGGTTCTAACCTGTTGCTA (site TAAGGTCCTTA)
- recombinant barcode read abundance (log10): 1.81

Sequence: TAATCGGCTTGGGTTCTAACCTGTTGCCT (site TAATCGACTAG)
- recombinant barcode read abundance (log10): 0.0571

Sequence: TAATCGGCTTGGGTTCTAACCTGTTGCCT (site TAATCGCCTAG)
- recombinant barcode read abundance (log10): 0.0352

Sequence: TAATCGGCTTGGGTTCTAACCTGTTGCCT (site TAATCGGCTAG)
- recombinant barcode read abundance (log10): 0.453

Sequence: TAATCGGCTTGGGTTCTAACCTGTTGCCT (site TAATCGTCTAG)
- recombinant barcode read abundance (log10): 0.111

Sequence: TAATCGTCTTGGGTTCTAACCTGTTGCCT (site TAATCGACTAG)
- recombinant barcode read abundance (log10): 0.0844

Sequence: TAATCGTCTTGGGTTCTAACCTGTTGCCT (site TAATCGCCTAG)
- recombinant barcode read abundance (log10): 0.0275

Sequence: TAATCGTCTTGGGTTCTAACCTGTTGCCT (site TAATCGGCTAG)
- recombinant barcode read abundance (log10): 0.0826

Sequence: TAATCGTCTTGGGTTCTAACCTGTTGCCT (site TAATCGTCTAG)
- recombinant barcode read abundance (log10): 1.84

Sequence: TAATGATCTTGGGTTCTAACCTGTTGCCT (site TAATGATCTAG)
- recombinant barcode read abundance (log10): 0.635

Sequence: TAATGATCTTGGGTTCTAACCTGTTGCCT (site TACTGATCTAG)
- recombinant barcode read abundance (log10): 0.0744

Sequence: TAATGATCTTGGGTTCTAACCTGTTGCCT (site TAGTGATCTAG)
- recombinant barcode read abundance (log10): 0.15

Sequence: TAATGATCTTGGGTTCTAACCTGTTGCCT (site TATTGATCTAG)
- recombinant barcode read abundance (log10): 0.155

Sequence: TAATGCCCTTGGGTTCTAACCTGTTGCCT (site TAATGCCCTAG)
- recombinant barcode read abundance (log10): 0.634

Sequence: TAATGCCCTTGGGTTCTAACCTGTTGCCT (site TATTGCCCTAG)
- recombinant barcode read abundance (log10): 0.13

Sequence: TAATGTTCTTGGGTTCTAACCTGTTGCAT (site TAATGGTCTAT)
- recombinant barcode read abundance (log10): 0.0924

Sequence: TAATGTTCTTGGGTTCTAACCTGTTGCAT (site TAATGTTCTAT)
- recombinant barcode read abundance (log10): 1.14

Sequence: TAATTGTCTTGGGTTCTAACCTGTTGCGT (site CAATTGTCTAC)
- recombinant barcode read abundance (log10): 0.725

Sequence: TAATTGTCTTGGGTTCTAACCTGTTGCGT (site TAATTGTCTAC)
- recombinant barcode read abundance (log10): 2.45

Sequence: TAATTTGCTTGGGTTCTAACCTGTTGCCT (site CGCGAGTCTCA)
- recombinant barcode read abundance (log10): 0.215

Sequence: TAATTTGCTTGGGTTCTAACCTGTTGCCT (site TAATTTGCTAG)
- recombinant barcode read abundance (log10): 0.182

Sequence: TACAAGCCTTGGGTTCTAACCTGTTGCGG (site TACAAGCCTCC)
- recombinant barcode read abundance (log10): 1.91

Sequence: TACAAGCCTTGGGTTCTAACCTGTTGCGG (site TACAAGTCTCT)
- recombinant barcode read abundance (log10): 0.051

Sequence: TACAAGTCTTGGGTTCTAACCTGTTGCAG (site TACAAGCCTCC)
- recombinant barcode read abundance (log10): 0.11

Sequence: TACAAGTCTTGGGTTCTAACCTGTTGCAG (site TACAAGTCTCT)
- recombinant barcode read abundance (log10): 1.47

Sequence: TACACTACTTGGGTTCTAACCTGTTGCAT (site TACACTACTAT)
- recombinant barcode read abundance (log10): 0.131

Sequence: TACACTACTTGGGTTCTAACCTGTTGCAT (site TACCCTACTAT)
- recombinant barcode read abundance (log10): 0.134

Sequence: TACAGACCTTGGGTTCTAACCTGTTGCAG (site ACGGAGTCTTA)
- recombinant barcode read abundance (log10): 0.128

Sequence: TACAGACCTTGGGTTCTAACCTGTTGCAG (site TACAGACCTCT)
- recombinant barcode read abundance (log10): 1.28

Sequence: TACAGTCCTTGGGTTCTAACCTGTTGCCT (site TACAGTCCTAG)
- recombinant barcode read abundance (log10): 1.06

Sequence: TACAGTCCTTGGGTTCTAACCTGTTGCCT (site TGCACTCCTAG)
- recombinant barcode read abundance (log10): 0.276

Sequence: TACCACTCTTGGGTTCTAACCTGTTGCCT (site AACCACTCTAG)
- recombinant barcode read abundance (log10): 0.335
